# Test results from US20240425812A1, “HYPOVENTILATION PHYSICAL MODELS AND APPLICATIONS THEREOF” (The University of Hong Kong, priority 2023, published 2024).
# Key:
# HBSOs = experiment: HBSO differentiation with WNT antagonist added on days 3-6 (growth, RT-qPCR of patterning markers at day 20); type: cell-based, human
# Description: To generate HSBOs, hPSCs are dissociated into single cell suspension by treating with 0.5 mM EDTA solution in DPBS and then Accutase as described above. 2.7×10^6 cells are seeded to a well of AggreWell800 24-well plate (STEMCELL Technologies, 34815) which contained 300 microwells per well (i.e. 9,000 cells per microwell). The cells are kept in mTeSR1 with 10 μM Y-27632 overnight in 37° C. incubator for the spheroid formation and they are marked as day 0 at this stage. At day 1, the spheroids from one well of Aggre Well800 are split into 3 wells of 6-well ultra-low-attachment plate containing Neural Induction Medium (DMEM/F12, 1% N2 supplement (v/v), 1% GlutaMAX supplement (v/v), 1% MEM-NEAA (v/v) and 1 μg ml^−1 Heparin) supplemented with BMP inhibitor LDN-193189 (1 μM) and TGF-β inhibitor SB431542 (10 μM). […]
# Total RNA from HCOs and HBSOs are extracted by RNeasy Mini Kit (Qiagen) and the RNA concentrations are determined by Nanodrop 1000 Spectrophotometer (Thermo Fisher Scientific). […] Fluorescence is measured by ViiA 7 Real-Time PCR System (Thermo Fisher Scientific) at the end of each cycle. […]
# HBSO neurons = experiment: Multi-electrode array (MEA) analysis of dissociated day 60 HBSO neurons; type: cell-based, human; details: 10 μM, applied immediately before recording
# Description: The functionality of HBSO neurons, particularly their responses to hypercapnia, is further assessed using multi-electrode array (MEA) analyses. Briefly, Day 60 HBSOs arc dissociated with Papain Dissociation System (Worthington, LK003150) following the manufacturer's protocol. In brief, the HBSOs are digested with the papain solution in 37° C. incubator for 30 min with continuous shaking at 90 r.p.m. and then triturated with P1000 pipette. The triturated HBSOs are further digested in 37° C. incubator for an additional 10 min and then filtered through 40 μm cell strainer (Corning, 352340) to remove undigested cell debris. The dissociated cells are collected by centrifuging at 300×g for 5 min at room temperature. The cells are then resuspended with DNase/ovomucoid inhibitor solution to stop the digestion. […] MEA recordings are measured at 37° C. with 5-8% CO2 in a Maestro Edge MEA System (Axion Biosystems) to detect spontaneous firing of spikes. The MEA plate is pre-equilibrated in the MEA system for at least 5 min before measurement and each treatment is recorded for 5-10 min to calculate the mean spike firing rate. […] The MEA recordings are analyzed using the Neural Module of AxIS Navigator 1.5 software and the Neural Metric Tool software (Axion Biosystems). […]
smiles,measurement,setting,value
O=C(Nc1cccc2cccnc12)c1ccc(N2C(=O)[C@@H]3[C@H](C2=O)[C@@H]2C=C[C@H]3C2)cc1 [IWR1-endo],favoring the dB2 domain formation (PHOX2B expression),"HBSOs; 1 μM or 10 μM, day 20 RT-qPCR, FIG. 1D",does not provide additional benefits
same,growth of the HBSOs,HBSOs; 10 μM,inhibited the growth
"NCCc1c[nH]c2ccc(O)cc12 [5-HT, serotonin]",firing of HBSO neurons,HBSO neurons; FIG. 1J,capable of enhancing the firing
CC1CCN(CC[C@H]2CCCN2S(=O)(=O)c2cccc(O)c2)CC1 [SB269970],hypercapnia responses of HBSO neurons,HBSO neurons; FIG. 1K,counteraction of these responses
